Values joined by “and” are separate entries in the source; they are usually repeats but may differ in a detail not shown here. Identical values can stand only once.
Tests used:
U87-MG cells = assay: Vasculogenic mimicry (tube formation on Geltrex), U87-MG; assay type: cell-based, human; conditions: for reduction in branching points: 24 h, Geltrex
Description: The tube formation assay was performed in 96-well plates pre-coated with 50 µL/well of Geltrex^TM (Thermofisher, Scientific, Waltham, MA, USA), and polymerized for 30 min at 37 °C. Briefly, 3 × 10^4 U87-MG, 1.5 × 10^4 U251, and 1 × 10^4 C6 cells/100µL/well were plated onto Geltrex^TM and monitored at 37 °C for the indicated times. The specific effectors were included at time 0. The formation of vascular-like structures by Geltrex^TM-plated U87-MG and U251-MG cells was monitored for 24 h, whereas C6 cells were tested for 16 h. The evaluation of the branching point number, defined as the intersection of at least 3 tubes [24], was performed using the Inverted Microscope DMI Leica 6000 for the U87-MG and U251-MG cells and the Inverted Microscope Axiovert 25 for the C6 cells. At the indicated times, the number of “branching points” was assessed in 4/5 random fields using the ImageJ 1.52a Software.
Figure 6 Vascular mimicry formation by U87-MG and effect of uPAcyclin. (A) Representative images of U87-MG cells pre-treated or not (untreated) for 40 min at 37 °C with uPAcyclin (1 nM and 100 nM) and then plated onto Geltrex^TM in multiwell-96 (3 × 10^4/well). As a control, cells were grown in the presence of DMEM/10% FBS (No matrix) or with Geltrex^TM (Untreated, Untd). Images are taken at 24 h using the Inverted Microscope DMI Leica 6000 with 50× total magnification, scale bar: 75 µm. (B) The quantitation of branching points, defined as the intersection of at least three tubes [24], was performed at 4, 8, and 24 h either in control cells and cells pre-treated for 40 min at 37 °C with 10 pM, 1 nM, and 100 nM uPAcyclin before plating onto Geltrex^TM. (C) U87-MG cells were pre-treated with uPAcyclin or with S-uPAcyclin, at the indicated concentrations, plated onto Geltrex^TM and, 24 h later, the number of branching points was evaluated and reported in the histogram (* p-value < 0.05; ** p-value < 0.005; *** p-value < 0.001).

U251-MG cells = assay: Boyden chamber migration (chemotaxis), U251-MG; assay type: cell-based, human; conditions: for migrated cells n°/field / migration, % of basal / migration, % of basal, average 2 expts / migration, % of basal, average expt 1 / migration, % of basal, average expt 2 / migration, % of basal, T-test list: sheet data scrambled; for migration, % of basal, average 2 expts: mean of 2 expts; for migration, % of basal, average expt 1: mean of expt 1; for migration, % of basal, average expt 2: mean of expt 2; for migration, % of basal, T-test list: single replicates
Description: The migration and invasion assays were performed using Boyden chambers and 8 µm pore size PVP-free filters coated with 50 µg/mL of collagen type VI (Sigma), as previously described. For the invasion assays, collagen-coated filters were further coated with 50 µg/mL Matrigel^TM (Sigma). Briefly, 11 × 10^4 U87-MG, 4 × 10^4 U251-MG, or 4 × 10^4 U138-MG/sample were pre-treated for 40 min at 37 °C with the indicated effectors. Then, the cells were allowed to migrate for 3 h or to invade for 5 h at 37 °C toward 5% FBS in DMEM/0.1% BSA. At the end of both assays, the cells on the lower filter surface were fixed, stained with haematoxylin, and counted under an optical microscope (Zeiss Axiophot, Carl Zeiss, Milan, Italy) at 20× magnification. The migration and invasion experiments were conducted in triplicate for U87-MG and in duplicate for U251-MG and U138-MG. The migrated or invaded cells were reported as percentage of basal migration or invasion in the presence of DMEM/0.1% BSA, taken as 100%, and analyzed as reported in Section 2.11.
Figure 3 Inhibition of U87-MG, U251-MG, and U138-MG GBM cellular migration by uPAcyclin. Quantitative analysis of U87-MG (A), U251-MG (B), and U138-MG (C) directional migration. A total of 11 × 10^4 U87-MG/sample or 4 × 10^4 U251-MG or U138-MG/sample were pre-treated for 40 min at 37 °C with uPAcyclin or S-peptide at the indicated concentrations, anti-αV polyclonal (anti-αV Pclonal) or monoclonal (anti-αV MoAb) antibody, or anti-GAPDH, and anti-α2 monoclonal antibody (anti-α2 MoAb), and then assayed in Boyden chambers at 37 °C, either for basal (BSA) or directional 5% FBS-dependent migration for 3 h at 37 °C. At the end of incubation, the filters were processed as described in Methods. Basal migration was taken as 100% and all values were calculated relative to that (* p-value < 0.05; ** p-value < 0.005; *** p-value < 0.001).

[1] = 100 nM, 5% FBS, 3 h, expt 1, duplicates
[2] = 100 nM, 5% FBS, 3 h, expt 2, duplicates
[3] = 1 nM, 5% FBS, 3 h, expt 1, duplicates
[4] = 1 nM, 5% FBS, 3 h, expt 2, duplicates

Substance: Ac-K^1P[ESPPEELK^10]-NH2 (sidechain bridge or staple) [uPAcyclin]
- branching point number, in words (U87-MG cells; 10 pM, 10 nM (legend: 1 nM), 100 nM, U87-MG, 4, 8, 24 h): concentration-dependent reduction in the branching point number
- reduction in branching points (U87-MG cells; 1 nM, U87-MG): approximately 60%
- VM formation by time-lapse videomicroscopy, in words (U87-MG cells; 100 nM, U87-MG, 14 h, serum-free): inhibited and delayed
- reduction in branching points (U87-MG cells; 100 nM, U87-MG): approximately 60%
- inhibition of migration (U251-MG cells; 1 nM, U251-MG, 5% FBS, 3 h): 70–80%
- migration, % of the basal, average all expts (U251-MG cells; 1 nM): 99%
- migration, in words (U251-MG cells; 100 nM, U251-MG, 5% FBS, 3 h): below background levels
- migration, % of the basal, average all expts (U251-MG cells; 100 nM): 83%
- migrated cells n°/field (U251-MG cells; [1]): 12 cells n°/field and 13 cells n°/field
- migration, % of basal (U251-MG cells; [1]): 86% and 93%
- migrated cells n°/field (U251-MG cells; [2]): 27 cells n°/field and 21 cells n°/field
- migration, % of basal (U251-MG cells; [2]): 123% and 95%
- migration, % of basal, average 2 expts (U251-MG cells; 100 nM): 99.2955%
- migration, % of basal, average expt 1 (U251-MG cells; 100 nM): 89.5%
- migration, % of basal, average expt 2 (U251-MG cells; 100 nM): 109.091%
- migration, % of basal, T-test list (U251-MG cells; 100 nM): 86 and 93 and 95

Substance: Ac-PS[EELKPEPK]-NH2 (sidechain bridge or staple) [S-uPAcyclin, scrambled control peptide]
- reduction in branching points (U87-MG cells; scrambled control, U87-MG): approximately 20%
- migration, % of the basal, average all expts (U251-MG cells; 1 nM): 176%
- migrated cells n°/field (U251-MG cells; [3]): 28 cells n°/field and 26 cells n°/field
- migration, % of basal (U251-MG cells; [3]): 200% and 186%
- migrated cells n°/field (U251-MG cells; [4]): 32 cells n°/field and 38 cells n°/field
- migration, % of basal (U251-MG cells; [4]): 145% and 172%
- migration, % of basal, average 2 expts (U251-MG cells; 1 nM): 176.045%
- migration, % of basal, average expt 1 (U251-MG cells; 1 nM): 193%
- migration, % of basal, average expt 2 (U251-MG cells; 1 nM): 159.091%
- migration, % of basal, T-test list (U251-MG cells; 1 nM): 200 and 186 and 145 and 172
- migration, % of the basal, average all expts (U251-MG cells; 100 nM): 157%
- migrated cells n°/field (U251-MG cells; [1]): 23 cells n°/field and 20 cells n°/field
- migration, % of basal (U251-MG cells; [1]): 164% and 143%
- migrated cells n°/field (U251-MG cells; [2]): 35 cells n°/field and 36 cells n°/field
- migration, % of basal (U251-MG cells; [2]): 159% and 163%
- migration, % of basal, average 2 expts (U251-MG cells; 100 nM): 157.432%
- migration, % of basal, average expt 1 (U251-MG cells; 100 nM): 153.5%
- migration, % of basal, average expt 2 (U251-MG cells; 100 nM): 161.364%
- migration, % of basal, T-test list (U251-MG cells; 100 nM): 164 and 143 and 159

— article PMC10571957, “αV-Integrin-Dependent Inhibition of Glioblastoma Cell Migration, Invasion and Vasculogenic Mimicry by the uPAcyclin Decapeptide” (Cancers, 2023)
